Source: paper PMC11363325, “A Novel Prodrug Strategy Based on Reversibly Degradable Guanidine Imides for High Oral Bioavailability and Prolonged Pharmacokinetics of Broad-Spectrum Anti-influenza Agents” (ACS Central Science, 2024)
Counter-ions that a name gives are not always drawn.

Columns and labels:
[1] = system: rgPR8(H275Y), A/Puerto Rico/8/1934 with the H275Y mutation in NA
[2] = system: A/Korea/2785/2009 (H1N1) with the H275Y mutation in NA (KR2785)
[3] = system: rgA/Korea/09/2009Δ53–60 with the H275Y mutation in NA (rgKR09)
[4] = system: rgA/Korea/09/2009Δ53–60(H275Y), A/H1N1(H275Y); parameters: species or system BALB/c mice; settings: mouse, in vivo, po, 10 mg/kg

Structure (SMILES) | EC50 [1] [µM] | EC50 [2] [µM] | EC50 [3] [µM] | survival rate [4] | resistance factor (RF), ratio of EC50 against rgPR8(H275Y) to wild-type rgPR8 [1]
NC12CC3CC(CC(C3)C1)C2 [AMT, Amantadine, reference compound] | > 100 | > 100 | > 100 |  | 
CCC(CC)O[C@@H]1C=C(C(=O)O)C[C@H](N=C(N2C(=O)C3CCC(C)CC3C2=O)N2C(=O)C3CCC(C)CC3C2=O)[C@H]1NC(C)=O (stereo partly drawn) [OSC-GCDI(CM)] | 1.2 ± 0.05 | 14 ± 5.15 | 4.43 ± 0.25 |  | 
CCCCC1CC(=O)N(C(=N[C@H]2CC(C(=O)O)=C[C@@H](OC(CC)CC)[C@@H]2NC(C)=O)N2C(=O)CC(CCCC)C2=O)C1=O (stereo partly drawn) [OSC-GCDI(B)] | 3.41 ± 0.01 | 17.6 ± 2.9 | 12.9 ± 0.65 |  | 
NC(=O)c1ncn([C@@H]2O[C@H](CO)[C@@H](O)[C@H]2O)n1 [RBV, Ribavirin, reference compound] | 16.4 ± 0.45 | 18.3 ± 1.3 | 15.79 ± 0.15 |  | 
CCC(CC)O[C@@H]1C=C(C(=O)O)C[C@H](N=C(N2C(=O)[C@H]3CC=CC[C@H]3C2=O)N2C(=O)[C@H]3CC=CC[C@H]3C2=O)[C@H]1NC(C)=O [OSC-GCDI(Ce)] | 1.9 ± 0.1 | 13.22 ± 0.1 | 5.21 ± 0.02 |  | 
CCC(CC)O[C@@H]1C=C(C(=O)O)C[C@H](N=C(N2C(=O)c3ccccc3C2=O)N2C(=O)c3ccccc3C2=O)[C@H]1NC(C)=O [OSC-GCDI(P)] | 0.48 ± 0.01 | 4.61 ± 0.35 | 4.61 ± 0.05 |  | 
CCC(CC)O[C@@H]1C=C(C(=O)O)C[C@H](N=C(N2C(=O)CC(C)C2=O)N2C(=O)CC(C)C2=O)[C@H]1NC(C)=O (stereo partly drawn) [OSC-GCDI(M)] | 0.74 ± 0.05 | 4.61 ± 0.35 | 1.96 ± 0.15 |  | 
CCC(CC)O[C@@H]1C=C(C(=O)O)C[C@H](NC(=N)N)[C@H]1NC(C)=O [GOC·TFA, guanidino oseltamivir carboxylate] |  |  |  | all mice were eventually dead | 
CCC(CC)O[C@@H]1C=C(C(=O)O)C[C@H](NC(=N)N)[C@H]1NC(C)=O [GOC, guanidino oseltamivir carboxylate, reference compound] | 0.09 ± 0.01 | 0.78 ± 0.01 | 0.11 ± 0.01 |  | 18.0
CCC(CC)O[C@@H]1C=C(C(=O)O)C[C@H](N)[C@H]1NC(C)=O [OSC, oseltamivir carboxylate, reference compound] | 13.7 ± 2.7 | 56.61 ± 0.3 | 25.9 ± 0.65 |  | 274
CCC(CC)O[C@@H]1C=C(C(=O)O)C[C@H](N=C(N2C(=O)[C@H]3CCCC[C@H]3C2=O)N2C(=O)[C@H]3CCCC[C@H]3C2=O)[C@H]1NC(C)=O [OSC-GCDI(C)] | 0.49 ± 0.01 | 5.91 ± 0.85 | 3.7 ± 0.5 |  | 
CCC(CC)O[C@@H]1C=C(C(=O)O)C[C@H](N=C(N2C(=O)CCC2=O)N2C(=O)CCC2=O)[C@H]1NC(C)=O [OSC-GCDI(S)] | 0.99 ± 0.01 | 8.55 ± 2.15 | 2.2 ± 0.1 |  | 
CCC(CC)O[C@@H]1C=C(C(=O)O)C[C@H](N=C(N2C(=O)CC(C)(C)C2=O)N2C(=O)CC(C)(C)C2=O)[C@H]1NC(C)=O [OSC-GCDI(D)] | 1.52 ± 0.2 | 9.25 ± 2.4 | 4.37 ± 1.1 |  | 
